The numbers were not newly measured in patent US11602509B2, “Salt of cysteamine for the preparation of highly respirable particles” (RECORDATI INDUSTRIA CHIMICA E FARMACEUTICA SPA, priority 2018, dated 2023), which cites them from elsewhere.

As a reminder, the pKa is the negative logarithm of the acid dissociation constant. Take `NCCS` [cysteamine free base, cysteamine]: the pKa is on record as 9.42.
